Assays:
[1] = system: murine AHR^d; test: EROD activity in AHR^d-15 cells (rat hepatoma BP8 stably transfected with AHR^d); settings: 5L versus AHR^d-15 cells, 40 hours
From the text: (§1) The 100 “hit compounds” from the primary screen were subsequently screened for their capacity to activate the low-affinity murine AHR^d receptor isoform using the activity of the endogenous Cyp1a1 gene as a readout. To this end, we established a hepatoma cell line that expresses the AHR^d receptor isoform derived from the DBA/2J mouse. An AHR^d-expressing cell line was generated by stably transfecting the AHR^d cDNA into the rat hepatoma AHR-deficient cell line, BP8 [15]. After stable selection with G418, a subclone (AHR^d-15) was analyzed for receptor expression and function. […] To confirm that the AHR^d-15 clone expressed a functional low affinity AHR^d isoform, we examined the receptor-mediated response to the prototype agonists, TCDD and β-naphthoflavone (BNF).
(§2) To test the ability of the 100 AHR inducers to activate the AHR^d-15 cells, they were treated with each of the compounds at the dose of 1 µM, for 36 hours in 96-well plates.
(§3) Figure 3 In Vitro dose response curves. A. Rat hepatoma cell lines bearing the murine AHR^d (AHR^d-15) or the rat AHR^b (5L) were incubated with increasing doses of TCDD in 96-well plates. After 40 hours, EROD activity was performed from whole cell lysate. (n = 3). […] (n = 3). C. Same assay as in A, with increasing doses of BNF. (n = 2). […] Following 48 hours, hepatic microsomal proteins were isolated and used for the assessment of EROD activity. Animals were treated in groups of 4. Error bars: S.D.
(§4) The open reading frame of the AHR^d gene (PL2047) was amplified by PCR using oligos OL5127 (5′-[…]-3′) and OL5128 (5′-[…]-3′). The product was ligated into the pTARGET™ mammalian expression vector (Promega, Madison, WI). The resulting plasmid was transfected into the AHR-deficient cell line, BP8 [15], using Effectene transfection reagent (Qiagen Inc., Valencia, CA). Stable integrants were selected with 6 mg/ml of G418 for 2 weeks, beginning at 48-hours post-transfection. Clones derived from single cells were screened for their response to nanomolar doses of dioxin or micromolar doses of BNF, as measured by ethoxyresorufin O-deethylase (EROD) activity. […] The validated cell line used in these studies was designated line AHR^d-15.
(§5) High-throughput analysis of EROD activity was assayed by adapting a protocol that was described elsewhere, [63]. Briefly, cells were seeded into 96-well plates at ∼ 60% density and treated with the test compounds for 36 hours. The cells were washed with PBS and lysed with 30 µL water and a cycle of freeze-thaw. To each well, 150 µL of 50 mM Hepes buffer containing 26.7 µM dicumarol and 13.3 µM ethoxyresorufin were added. The samples were incubated at 30°C for 20 minutes, and 50 µL of 0.5 mM β-NADPH were added to initiate the reaction. Fluorescence of the resorufin product was detected using the 544 nm excitation and 590 nm emission wavelength filter set.

[2] = system: human ARNT; test: DRE-luciferase in ARNT-deficient C4 cells transfected with ARNT; type: cell-based; settings: ARNT or empty vector, 3 µM, 18 h
[3] = target: T1, murine AHR^d (Mus musculus, UniProt P30561, A375V); test: EROD activity in AHR^d-15 cells (rat hepatoma BP8 stably transfected with AHR^d)
T1 sequence (P30561 10-848 A375V): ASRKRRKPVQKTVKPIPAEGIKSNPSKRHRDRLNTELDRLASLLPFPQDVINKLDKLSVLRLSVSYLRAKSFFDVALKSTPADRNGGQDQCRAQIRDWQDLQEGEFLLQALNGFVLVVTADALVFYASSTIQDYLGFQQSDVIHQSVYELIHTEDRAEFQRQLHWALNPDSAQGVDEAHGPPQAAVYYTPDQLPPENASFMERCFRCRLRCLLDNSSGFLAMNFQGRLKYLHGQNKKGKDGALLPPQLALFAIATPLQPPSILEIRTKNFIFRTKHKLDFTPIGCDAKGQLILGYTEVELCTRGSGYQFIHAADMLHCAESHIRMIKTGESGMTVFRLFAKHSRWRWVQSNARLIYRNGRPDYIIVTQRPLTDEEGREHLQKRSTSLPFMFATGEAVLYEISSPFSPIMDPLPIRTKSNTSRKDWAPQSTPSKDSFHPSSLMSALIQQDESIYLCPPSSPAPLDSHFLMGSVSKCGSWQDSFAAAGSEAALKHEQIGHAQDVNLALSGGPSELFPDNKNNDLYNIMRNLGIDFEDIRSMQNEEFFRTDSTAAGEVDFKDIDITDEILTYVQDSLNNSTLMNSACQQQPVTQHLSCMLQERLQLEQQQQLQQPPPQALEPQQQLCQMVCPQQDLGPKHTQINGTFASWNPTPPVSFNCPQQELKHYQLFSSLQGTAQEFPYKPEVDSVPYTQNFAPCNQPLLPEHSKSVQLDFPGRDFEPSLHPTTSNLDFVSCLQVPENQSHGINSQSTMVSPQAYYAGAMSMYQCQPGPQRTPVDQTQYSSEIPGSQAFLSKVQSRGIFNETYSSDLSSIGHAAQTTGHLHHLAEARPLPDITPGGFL
From the text: as §1, §2, §3, §4, §5

[4] = system: CYP1A1 (induction through AHR^d); test: CYP1A1 qPCR in AHR^d splenocytes; settings: AHR^d congenic on a C57BL/6J background, mouse
Description: As the above in vitro experiments were performed in cell lines, we next utilized AHR^b (C57BL/6J) and AHR^d congenic mice (on a C57BL/6J background). […] Normalized data was chosen to allow comparison of CYP1A1 upregulation to its maximum in AHR^b versus AHR^d mice.
Figure 4 Splenocytes from wild-type and AHR^d mice analyzed by qPCR for CYP1A1. […] After 4 hours they were analyzed by qPCR for CYP1A1 analysis. The curves are normalized from 0 to 100% response. […] Cos-1 cells were transfected with an AHR containing the same point mutation (valine for alanine) thought to be responsible for the low affinity of the AHR^d isoform compared to AHR^b, and compared to the wild-type AHR response. These cells also harbor a luciferase gene next to the DRE. C. Cos-1 cells were exposed to TCDD. […]
Spleen was harvested from mice at the time of euthanasia and single cell suspensions were made. […] The relative quantitation PCR for IDO1 (Mm00492586-m1) and GAPDH (4352339-E0806018) were performed in the Applied Biosystems 7900HT Fast Real-Time PCR System (Applied Biosystems), and TaqMan Universal PCR Master Mix (Applied Biosystems) was used as a reaction reagent. The relative quantitation PCR for Foxp3, CYP1A1, CYP1B1, and GAPDH were processed by the Bio-Rad iCycler (Bio-Rad) and iQ SYBR Green Supermix ([…]) was used as the reaction reagent.

| SMILES | cytochrome P450 induction (EROD), comparison of the two cell lines [1] | DRE-luciferase activity [2] | EC50 [3] | induction of AHR^d-mediated EROD activity ([3]; AHR^d-15 cells, positive control 2 nM, 36 hours) | EC50 at 4 h [4] |
| --- | --- | --- | --- | --- | --- |
| Cc1cc(C)c(C=C2C(=O)Nc3ccccc32)[nH]1 [SU5416, 3-(3,5-dimethyl-1H-pyrrol-2-ylmethylene)-1,3-dihydro-indole-2-one] | equal potency | activity was only seen when ARNT was transfected | – | – | – |
| Clc1cc2c(cc1Cl)Oc1cc(Cl)c(Cl)cc1O2 [TCDD, 2,3,7,8-tetrachlorodibenzo-p-dioxin] | – | – | ~30 nM | greater than 5 fold | 1.89 nM |

Reference: article PMC3435281 (PLoS ONE, 2012)
